Source: US20100151452A1, “Methods and Systems for Searching for Regulators of the Fer Protein and for Monitoring the Effects of the Fer Protein” (priority 2006, published 2010)

Test system: CDK2
Assay: Western blot of CDK2 level
Assay type: cell-based, human
Details: PC3 cells, simultaneous exposure to fer-siRNA and cycloheximide 10 μg/ml 4 h
Procedure: For treatment with cycloheximide, PC3 cells transfected with siRNA for 72 h, were subjected to 10 μg/ml cycloheximide for additional 4 h, at the end of the transfection process.
Whole cell lysates (WCL) were prepared as described before (Salem et al., 2005). For Western blot analysis, 20-30 μg proteins from each sample were resolved in 7-12% SDS-PAGE. Electroblotted proteins were detected using specific anti-Fer antibodies (Priel-Halachmi et al., 2000), anti-CDK2 (sc-6248, Santa Cruz), anti-CDK1 (sc-54, Santa Cruz), anti-CDK4 (610148, BD Biosciences), anti-CDK6 (554086, BD Biosciences), anti-CDK7 (sc-856, Santa Cruz), anti-cyclin A (sc-751, Santa Cruz), anti-cyclin D1 (sc-6281, Santa Cruz), anti-cyclin E (sc-247, Santa Cruz), anti-cyclin H (sc-1662, Santa Cruz), anti-pRB (sc-102, Santa Cruz), anti-phosphosthreonine^821-pRB (pThr821) (44-582, Biosource), anti-phosphoserine^795-pRB (pSer795) (sc-7986-R, Santa Cruz), anti-phosphoserine^780-pRB (pSer780) (9307, Cell Signaling), anti-phosphoserine^807/811-pRB (pSer807/811) (9308, Cell Signaling), anti-PP1α (2582, Cell Signaling), anti-PP1 (sc-443, Santa Cruz), anti-phosphothreonine^320-PP1α (pThr320) (2581, Cell Signaling), anti-p21Cip1 (sc-6246, Santa Cruz), anti-p27Kip1 (sc-528, Santa Cruz), anti-HA (NMS-101R, Covance), anti-Myc (13-2500, Zymed), and anti-Actin antibody (A 4700, Sigma). […]

Question: `C[C@@H]1C[C@@H]([C@H](O)CC2CC(=O)NC(=O)C2)C(=O)[C@@H](C)C1` [cycloheximide] was tested. Which “effect on the fer-siRNA induced decrease of the level of CDK2” value did it give?
Answer: alleviated this effect
